Reference: ChEMBL document CHEMBL3621110, “Discovery and Development of the Aryl O-Sulfamate Pharmacophore for Oncology and Women's Health” (J Med Chem, 2015)

What was measured:
[1] = tested on: MDA-MB-231; assay: cells; type: functional; conditions: Homo sapiens
[2] = tested on: MCF7; assay: animal or person; type: functional, Homo sapiens; conditions: Mus musculus, MCF7, po
[3] = tested on: MCF7; assay: animal or person; type: functional, Homo sapiens; conditions: Mus musculus, MCF7, po; remark: listed apart in the source
[4] = in vivo; conditions: MF1, mouse
[5] = in vivo; conditions: MF1, mouse; remark: listed apart in the source
[6] = in vivo; conditions: MF1, mouse; remark: listed apart in the source
[7] = tested on: MDA-MB-231; assay: animal or person; type: functional, Homo sapiens; conditions: Mus musculus
[8] = tested on: 4T1; assay: animal or person; type: functional; conditions: Mus musculus
[9] = in vivo; conditions: mouse, po, 10 mg/kg
[10] = tested on: MDA-MB-231; assay: animal or person; type: functional, Homo sapiens; conditions: Mus musculus; remark: listed apart in the source
[11] = tested on: 4T1; assay: animal or person; type: functional; conditions: Mus musculus; remark: listed apart in the source
[12] = in vivo; conditions: MF1, mouse; remark: listed apart in the source
[13] = tested on: DU-145; assay: cells; type: functional; conditions: Homo sapiens
[14] = tested on: MCF7; assay: cells; type: functional, cell-based; conditions: Homo sapiens
[15] = tested on: MDA-MB-231; assay: cells; type: functional, cell-based; conditions: Homo sapiens
[16] = species: Rattus norvegicus; assay: animal or person; type: functional; conditions: Wistar, po, 3 h
[17] = target: T1, Steryl-sulfatase (Homo sapiens, UniProt P08842); type: cell-based, JEG-3
T1 sequence (P08842 whole entry): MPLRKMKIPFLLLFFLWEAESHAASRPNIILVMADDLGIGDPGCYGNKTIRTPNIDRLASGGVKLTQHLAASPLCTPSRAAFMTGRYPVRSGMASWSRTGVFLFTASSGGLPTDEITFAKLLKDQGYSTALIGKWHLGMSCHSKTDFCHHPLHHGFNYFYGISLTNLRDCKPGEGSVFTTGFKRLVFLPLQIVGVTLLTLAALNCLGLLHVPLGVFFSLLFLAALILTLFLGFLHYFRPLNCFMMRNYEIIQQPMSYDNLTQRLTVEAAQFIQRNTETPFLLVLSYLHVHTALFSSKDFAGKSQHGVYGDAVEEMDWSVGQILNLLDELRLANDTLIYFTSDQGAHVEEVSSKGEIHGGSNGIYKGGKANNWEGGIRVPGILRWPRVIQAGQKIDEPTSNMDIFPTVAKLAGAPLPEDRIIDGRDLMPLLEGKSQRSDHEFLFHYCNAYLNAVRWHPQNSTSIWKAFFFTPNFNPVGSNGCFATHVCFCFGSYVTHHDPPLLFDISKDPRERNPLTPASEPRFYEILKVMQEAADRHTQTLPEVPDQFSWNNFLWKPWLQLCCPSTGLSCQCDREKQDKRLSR

[18] = cells; type: functional, cell-based; conditions: Homo sapiens, PC-3
[19] = tested on: MCF7; assay: cells; type: functional; conditions: Homo sapiens
[20] = cells; type: functional, cell-based; conditions: Homo sapiens, A2780 ADR
[21] = tested on: MCF7; assay: cells; type: functional; conditions: Homo sapiens; remark: listed apart in the source
[22] = target: T1, Steryl-sulfatase; set-up: species or system Placenta, Microsome
[23] = tested on: LNCaP; assay: cells; type: functional, cell-based; conditions: Homo sapiens
[24] = tested on: A2780cisR; assay: cells; type: functional, cell-based; conditions: Homo sapiens
[25] = target: T1, Steryl-sulfatase; type: microsomes, Placenta, Microsome
[26] = target: T2, Estrogen receptor (Homo sapiens, UniProt P03372)
T2 sequence (P03372 whole entry): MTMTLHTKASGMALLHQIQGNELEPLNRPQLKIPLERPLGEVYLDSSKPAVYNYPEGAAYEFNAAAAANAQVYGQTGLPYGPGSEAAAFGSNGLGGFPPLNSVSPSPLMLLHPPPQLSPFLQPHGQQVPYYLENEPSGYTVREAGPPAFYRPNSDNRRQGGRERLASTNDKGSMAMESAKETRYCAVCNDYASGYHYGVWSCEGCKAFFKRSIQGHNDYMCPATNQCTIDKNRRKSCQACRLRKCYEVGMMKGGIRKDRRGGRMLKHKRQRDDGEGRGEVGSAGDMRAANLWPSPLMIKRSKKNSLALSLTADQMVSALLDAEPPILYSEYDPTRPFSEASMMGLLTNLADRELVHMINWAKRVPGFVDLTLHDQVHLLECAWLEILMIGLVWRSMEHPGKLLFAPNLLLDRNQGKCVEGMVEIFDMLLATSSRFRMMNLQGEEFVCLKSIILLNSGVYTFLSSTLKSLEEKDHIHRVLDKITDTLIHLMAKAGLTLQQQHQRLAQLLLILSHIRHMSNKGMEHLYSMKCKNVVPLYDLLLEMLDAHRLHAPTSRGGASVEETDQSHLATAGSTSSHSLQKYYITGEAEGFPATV

[27] = species: Rattus norvegicus; assay: animal or person; type: functional; conditions: Liver, po, 168 h

COc1cccc(CN2Cc3cc(OC)c(OS(N)(=O)=O)cc3CC2C)c1 (stereo unspecified)
GI50 [1]: 234 nM

COc1cc2c(cc1OS(N)(=O)=O)CC[C@@H]1[C@@H]2CC[C@]2(C)[C@@H](OS(N)(=O)=O)CC[C@@H]12
inhibition in vivo at 20 mg/kg [2]: 52% | inhibition in vivo at 5 mg/kg [3]: 46% | selectivity ratio [4]: 3 | selectivity ratio [5]: 4 | LD50 [6]: 80 mg/kg | ED50 [7]: 20 mg/kg | inhibition in vivo at 20 mg/kg/day [8]: 80.4% | bioavailability at 24 h [9]: 85% | ED50 [10]: 10 mg/kg | inhibition in vivo at 20 mg/kg/day [11]: 35% | LD50 [12]: 30 mg/kg

COc1ccc(OC)c(CN2Cc3cc(OC)c(OS(N)(=O)=O)cc3CC2C)c1 (stereo unspecified)
GI50 [1]: 160 nM | GI50 [13]: 189 nM

COc1cc2c(cc1OS(N)(=O)=O)CC[C@@H]1[C@@H]2CC[C@]2(C)[C@@H](CC#N)CC[C@@H]12
inhibition in vivo at 20 mg/kg [2]: 22% | IC50 [14]: 70 nM | IC50 [15]: 80 nM

COc1cc2c(cc1OS(N)(=O)=O)CCN(Cc1cc(Cl)c(OC)c(OC)c1)C2
GI50 [1]: 40 nM | GI50 [13]: 40 nM

N#Cc1ccc(N(Cc2ccc(OS(N)(=O)=O)cc2)n2cnnc2)cc1
inhibition in vivo at 10 mg/kg [16]: 39%

N#Cc1ccc(N(Cc2ccc3cc(OS(N)(=O)=O)ccc3c2)n2cnnc2)cc1
IC50 [17]: 367 nM

COc1cc2c(cc1OS(N)(=O)=O)CC[C@@H]1[C@@H]2CC[C@]2(C)C(=O)CC[C@@H]12
IC50 [18]: 100 nM | inhibition at 1 µM [19]: 52% | IC50 [20]: 100 nM | GI50 [21]: 300 nM | IC50 [22]: 30 nM | IC50 [23]: 100 nM | IC50 [24]: 100 nM

C[C@]12CC[C@@H]3c4ccc(OS(N)(=O)=O)cc4CC[C@H]3[C@@H]1CC(=O)NC2=O
IC50 [25]: 20 nM

CN1C(=O)C[C@H]2[C@@H]3CCc4cc(OS(N)(=O)=O)ccc4[C@H]3CC[C@]2(C)C1=O
IC50 [25]: 12 nM

NS(=O)(=O)Oc1ccc2c3c(c(=O)oc2c1)CCCCCCCCCC3
IC50 [22]: 60 nM

CCc1cc2c(cc1OS(N)(=O)=O)CCN(Cc1cc(OC)c(OC)c(OC)c1)C2
GI50 [1]: 52 nM | GI50 [13]: 41 nM

CCC1Cc2cc(OS(N)(=O)=O)c(OC)cc2CN1Cc1cccc(OC)c1 (stereo unspecified)
GI50 [1]: 281 nM | GI50 [13]: 286 nM

Cn1nnc2ccc(C(c3ccc(OS(N)(=O)=O)cc3)n3cncn3)cc21 (stereo unspecified)
IC50 [17]: > 10000 nM

CCN(Cc1ccc(C(=O)N2CCc3ccc(O)cc3C2)cc1)Cc1ccccn1
IC50 [26]: 24600 nM

COc1ccc(F)c(CN2Cc3cc(OC)c(OS(N)(=O)=O)cc3CC2C)c1 (stereo unspecified)
GI50 [1]: 269 nM | GI50 [13]: 299 nM

NS(=O)(=O)Oc1ccc2c3c(c(=O)oc2c1)CCC3
IC50 [22]: 200 nM

CCc1cc2c(cc1OS(N)(=O)=O)CCN(Cc1cc(Br)c(OC)c(OC)c1)C2
GI50 [1]: 30 nM | GI50 [13]: 20 nM

NS(=O)(=O)Oc1ccc2c3c(c(=O)oc2c1)CCCCCCCC3
IC50 [22]: 1 nM

NS(=O)(=O)Oc1ccc2c3c(c(=O)oc2c1)CCCCCCC3
IC50 [22]: 2.4 nM

C=CCN1C(=O)C[C@H]2[C@@H]3CCc4cc(OS(N)(=O)=O)ccc4[C@H]3CC[C@]2(C)C1=O
IC50 [25]: 75 nM

Cc1cc(=O)oc2cc(OS(N)(=O)=O)ccc12
inhibition in vivo at 10 mg/kg/day [27]: 85%
